Test [1] is described as follows: Antiinvasive activity against mouse 26-L5 cells at 1 ug/ml. Type of test: functional.
Test [2] is filed under the species Mus musculus. The experiment in a line: Cytotoxicity against mouse 26-L5 cells at 10 ug/ml. The format is functional, cell-based.
The species named for test [3] is Mus musculus. As to the kind of experiment: Antiinvasive activity against mouse 26-L5 cells assessed as inhibition of cell migration. Type of test: functional, cell-based.
Test [4] can be described thus: Antiinvasive activity against mouse 26-L5 cells. The format is functional, cell-based.

pIC50: −log10 of the molar value. Active and inactive are the calls of the source. No cut-off for these calls is given here.

Turning to `O=C(OC[C@H]1O[C@H](O[C@H]2O[C@H](COC(=O)c3ccccc3O)[C@@H](O)[C@H](O)[C@H]2O)[C@H](O)[C@@H](O)[C@@H]1O)c1ccccc1O`, the Activity in test [1] came out at 35%.

In the case of `O=C(OC[C@H]1O[C@H](O[C@H]2O[C@H](COC(=O)c3cccc(O)c3O)[C@@H](O)[C@H](O)[C@H]2O)[C@H](O)[C@@H](O)[C@@H]1O)c1cccc(O)c1O`, the Activity in test [1] is given as 40%. Turning to `O=C(OC[C@H]1O[C@H](O[C@H]2O[C@H](COC(=O)c3ccccc3)[C@@H](O)[C@H](O)[C@H]2O)[C@H](O)[C@@H](O)[C@@H]1O)c1ccccc1`, the Activity in test [1] came out at 51%. What is called pIC50 is −log10 of the IC50, conventionally taken in molar units. Turning to `Cc1cc(O)cc(O)c1C(=O)OC[C@H]1O[C@H](O[C@H]2O[C@H](COC(=O)c3c(C)cc(O)cc3O)[C@@H](O)[C@H](O)[C@H]2O)[C@H](O)[C@@H](O)[C@@H]1O` [BRARTEMICIN], the Activity result in the test listed under Mus musculus [2] was “Not toxic”; in test [1], 59%. For the same molecule, the result in the test filed under Mus musculus [3] was inactive. This molecule also showed a negative logarithm of the IC50 (pIC50) in test [4] of 6.41.

These data come from ChEMBL document CHEMBL1151951, “Brartemicin, an inhibitor of tumor cell invasion from the actinomycete Nonomuraea sp” (J Nat Prod, 2009).
